{"source": "patent US6063383A", "about": "“Pharmaceutical suppository composites for fever and influenza and method of producing the composites” (priority 1999, dated 2000)", "origin": "cited, not measured here", "system": "small rats", "conditions": "rat, in vivo", "data": [{"smiles": "NCCS(=O)(=O)O", "note": "[taurine]", "values": [{"measurement": "spontaneous and pedaling activities", "value": "can reduce the combined action of spontaneous activities and pedaling activities"}]}]}
